Experimental data from patent US20140242012A1, “METHODS FOR TREATING UV-DAMAGED SKIN AND SCC TUMORS AND FOR REMOVING TATTOOS WITH TOPICAL INGENOL MEBUTATE” (LEO Laboratories Limited, priority 2011, published 2014).

Columns and labels:
UVB-damaged skin = assay: Skin appearance and histology after treatment of UVB-damaged skin; format: in vivo, SKH1/hr mice
Method: For histological studies samples were fixed in 10% formalin and processed for paraffin embedding at the indicated times after ingenol mebutate treatment. Paraffin sections were stained with haematoxylin and eosin (H&E), or toluidine blue using standard protocols.
(§1) Three days after the last dose of UVB irradiation, an about 4 cm^2 dorsal area was topically treated daily for 2 days with 40 μl of 0.05% PEP005 gel or placebo gel. The treatment area was demarcated by a tattoo. Mice were culled 6 h (6 h) and 24 h (Day 1) after the first dose of 0.05% PEP005 gel and 24 h after the second dose of 0.05% PEP005 gel or placebo gel (Day 2). The samples were fixed in 10% formalin and processed by QIMR histology for paraffin embedding. Paraffin sections were stained with haematoxylin and eosin (H&E), Leder stain or toludine blue by QIMR Histotechnology, in accordance with standard protocols.
To identify the histological changes after 0.05% PEP005 gel treatment, skin was examined at different times after treatment; 6 h after the first dose was applied (6 h), 24 h after the first dose was applied (Day 1), and 24 h after the second dose was applied (Day 2). Placebo treated mice were treated with equivalent volumes of placebo gel and the skin examined 24 h after the second dose.
as §1, with “a ˜4 cm2” for “an about 4 cm^2”
Three days after the last dose of UVB irradiation, a ˜4 cm^2 dorsal area is topically treated daily for 2 days with 40 μl of 0.05% PEP005 gel or placebo gel. The treatment area is demarcated by a tattoo. […]

T7 tumours = assay: Challenge of ingenol mebutate cured mice with T7 cells; format: in vivo, SKH1/hr mice; settings: challenge 110 or 159 days after cure with 0.25% topical
Method: To determine if cure of primary T7 tumours in inbred SKH1/hr mice would protect mice from subsequent challenge with the same tumour, T7 cells were injected s.c. in female SKH1/hr mice that had primary T7 tumours previously cured by topical treatment with 0.25% ingenol mebutate. There were 2 groups of mice, mice that had primary tumours cured by ingenol mebutate 110 (group 1) and 159 (group 2) days prior to challenge. Included in the study was a control group that had not previously received T7 or ingenol mebutate treatment. Tumour growth is monitored over time. Mice are culled when tumours reached 100 mm^2.
Mice are inoculated s.c. with 2×10^4 T7 cells 110 (Day 110) or 159 (Day 159) days post last treatment of primary tumour with ingenol mebutate. Tumour growth is monitored over time. Mice are sacrificed when tumour reached 100 mm^2. Survival curves are generated by assigning a death event when tumours reached 100 mm^2. Control mice had neither prior T7 nor ingenol mebutate treatment.

Tattoo studies = format: in vivo, SKH1/hr mice; settings: 50 μl topically daily for 2 days (Days 12 & 13), followed to Day 232, n=5
Method: Fifteen SKH1/hr mice are tattooed on their dorsa with an about 1 cm×about 1 cm cross using human grade blue tattoo ink (Tattoo supplies Australia, Catalogue number FFMB) on Day 0. Once the tattooed area heals (after 12 days), the tattoo (about 100 mm^2) is topically treated daily for 2 days with 50 μl of PEP005 gel or placebo gel (Day 12 & Day 13). Two PEP005 doses are tested: 0.1% and 0.25% (w/v). The mice are examined over time to assess any changes to the tattooed area and photographs are taken.
The aim study is to determine whether PEP005 gel can remove tattoo markings when applied topically. Fifteen mice are tattooed with a cross on their dorsa. Twelve days after the tattoos are drawn, they are treated topically daily for 2 days with 0.1% PEP005, 0.25% PEP005 or placebo gel. The photographs in FIG. 1 show the tattoo just prior to the first treatment (Day 12), 24 h after the first treatment (Day 13) and at different time points after the second treatment (from Day 14 onwards). […] One week after the second dose, an eschar encompassing the whole treatment area forms. This contracts over time and fully resolves after about 3 weeks (Day 32). […] Six to seven months after the PEP005 treatment is applied, the treated area heals, leaving skin with a slight pink tinge. […] There is no change in the placebo treated tattoos over this time frame. […]

B16 = settings: Ogbourne et al. 2004; cited from earlier work

C/C=C(/C)C(=O)O[C@H]1C(C)=C[C@]23C(=O)[C@@H](C=C(CO)[C@@H](O)[C@]12O)[C@H]1[C@@H](C[C@H]3C)C1(C)C [ingenol mebutate]
haemorrhage in treated skin (UVB-damaged skin; 24-48 h after treatment initiation): widespread haemorrhage | mast cells (toluidine blue staining) (UVB-damaged skin; 24 h): few toluidine blue staining cells could be seen | reduction of mean skin area within the tattooed treatment area (UVB-damaged skin; after healing up to 20-21 weeks, ~4 or ~10 cm2 area): about 3 fold | protection against subsequent T7 challenge (T7 tumours): no protective effect | removal of tattoo markings (Tattoo studies): eradication of the tattoo markings | LD90 (B16): 190 µM
